Data as given in PMC10685318, “Trans-cyclosulfamidate mannose-configured cyclitol allows isoform-dependent inhibition of GH47 α-D-mannosidases through a bump–hole strategy” (Chemical Science, 2023).

Biological target: T1, MAN2A1 (Homo sapiens, UniProt Q16706)
T1 construct: expressed in transfected cells
T1 sequence (Q16706 1-1144): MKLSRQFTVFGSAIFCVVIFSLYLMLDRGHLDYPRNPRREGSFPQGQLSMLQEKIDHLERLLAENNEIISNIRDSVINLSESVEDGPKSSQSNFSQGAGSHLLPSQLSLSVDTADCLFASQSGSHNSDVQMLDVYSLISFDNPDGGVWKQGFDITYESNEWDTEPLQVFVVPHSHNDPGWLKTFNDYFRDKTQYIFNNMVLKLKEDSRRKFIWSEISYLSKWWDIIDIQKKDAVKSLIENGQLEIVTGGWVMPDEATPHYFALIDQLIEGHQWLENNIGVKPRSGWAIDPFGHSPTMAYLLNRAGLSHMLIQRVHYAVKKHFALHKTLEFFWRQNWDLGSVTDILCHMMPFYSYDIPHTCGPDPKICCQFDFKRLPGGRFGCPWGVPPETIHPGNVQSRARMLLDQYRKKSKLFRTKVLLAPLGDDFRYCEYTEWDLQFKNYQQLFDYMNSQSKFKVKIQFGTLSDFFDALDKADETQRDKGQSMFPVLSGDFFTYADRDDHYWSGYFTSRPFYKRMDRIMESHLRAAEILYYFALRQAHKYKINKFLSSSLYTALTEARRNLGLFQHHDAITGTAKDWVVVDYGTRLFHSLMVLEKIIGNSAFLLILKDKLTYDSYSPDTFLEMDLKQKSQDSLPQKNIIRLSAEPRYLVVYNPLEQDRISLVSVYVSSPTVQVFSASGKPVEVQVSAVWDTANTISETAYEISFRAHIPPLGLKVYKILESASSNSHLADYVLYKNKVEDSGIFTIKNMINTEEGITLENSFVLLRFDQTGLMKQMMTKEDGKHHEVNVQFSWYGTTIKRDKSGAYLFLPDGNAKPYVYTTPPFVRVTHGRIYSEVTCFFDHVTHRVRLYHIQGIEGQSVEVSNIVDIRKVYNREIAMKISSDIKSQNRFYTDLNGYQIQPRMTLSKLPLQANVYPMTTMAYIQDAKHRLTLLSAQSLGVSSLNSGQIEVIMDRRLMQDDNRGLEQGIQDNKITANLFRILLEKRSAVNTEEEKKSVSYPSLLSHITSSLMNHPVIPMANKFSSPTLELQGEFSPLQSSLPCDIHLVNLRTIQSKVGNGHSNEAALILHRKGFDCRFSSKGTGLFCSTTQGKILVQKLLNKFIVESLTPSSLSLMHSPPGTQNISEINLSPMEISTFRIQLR
Assay: 4-MU-α-man activity assay in overexpressed cell lysates
Format: biochemical

In the case of `O=S1(=O)N[C@@H]2[C@@H](O)[C@@H](O)[C@H](O)[C@@H](CO)[C@H]2O1` [compound 6, 1,6-trans-manno-cyclosulfamidate], the “activity when the buffer was enriched with CoCl2” value (CoCl2) is reported as “no activity” and the IC50 (Zn2+) is reported as > 1 mM.
